In paper PMC8081663, “A biosensor for the direct visualization of auxin” (Nature, 2021):

How the values were obtained:
Test in all cases: ITC, one-site model
Format in all cases: binding
TrpR [1] = target: T1, TrpR (Escherichia coli, UniProt P0A881)
T1 construct: TrpR without fluorescent proteins, pET21b(+), expressed in E. coli BL21(DE3), NiIMAC and Superdex S75; homodimer; template Trp-CTY / Trp-CTYT sensors (Addgene 13533, 13534)
Text: (§1) ITC, one-site model on TrpR

TrpR [2] = target: T2, TrpR (Escherichia coli, UniProt P0A881, S88Y)
T2 construct: TrpR without fluorescent proteins, pET21b(+), expressed in E. coli BL21(DE3), NiIMAC and Superdex S75; homodimer; template Trp-CTY / Trp-CTYT sensors (Addgene 13533, 13534)
Text: as §1

TrpR [3] = target: T3, TrpR (Escherichia coli, UniProt P0A881, M42F/N87G/S88Y/T44L/T81M)
T3 construct: TrpR without fluorescent proteins, pET21b(+), expressed in E. coli BL21(DE3), NiIMAC and Superdex S75; homodimer; template Trp-CTY / Trp-CTYT sensors (Addgene 13533, 13534)
Text: as §1

TrpR [4] = target: T4, TrpR (Escherichia coli, UniProt P0A881, S88Y/T44L/T81M)
T4 construct: TrpR without fluorescent proteins, pET21b(+), expressed in E. coli BL21(DE3), NiIMAC and Superdex S75; homodimer; template Trp-CTY / Trp-CTYT sensors (Addgene 13533, 13534)
Text: as §1

TrpR [5] = target: T5, TrpR (Escherichia coli, UniProt P0A881, S88Y/T44L)
T5 construct: TrpR without fluorescent proteins, pET21b(+), expressed in E. coli BL21(DE3), NiIMAC and Superdex S75; homodimer; template Trp-CTY / Trp-CTYT sensors (Addgene 13533, 13534)
Text: as §1

TrpR [6] = target: T6, TrpR (Escherichia coli, UniProt P0A881, N87G/S88Y/T44L/T81M)
T6 construct: TrpR without fluorescent proteins, pET21b(+), expressed in E. coli BL21(DE3), NiIMAC and Superdex S75; homodimer; template Trp-CTY / Trp-CTYT sensors (Addgene 13533, 13534)
Text: as §1

Kd (TrpR [1]) [µM] | Compound | Kd (TrpR [2]) [µM] | Kd (TrpR [3]) [µM] | Kd (TrpR [4]) [µM] | Kd (TrpR [5]) [µM] | Kd (TrpR [6]) [µM]
137.4 ± 0.5 | O=C(O)Cc1c[nH]c2ccccc12 [IAA] | 14.6 ± 0.1 | 1.5 ± 0.1 | 3 ± 0.1 | 7.8 ± 0.3 | 1.6
25 ± 0.7 | N[C@@H](Cc1c[nH]c2ccccc12)C(=O)O [TRP] |  |  |  |  | 

Compound | Kd (TrpR [1]) [µM] | Kd (TrpR [2]) [µM] | Kd (TrpR [3]) [µM] | Kd (TrpR [4]) [µM] | Kd (TrpR [5]) [µM] | Kd (TrpR [6]) [µM]
N#CCc1c[nH]c2ccccc12 [IAN] | 63.7 ± 1.7 | 17.9 ± 0.6 | 14.3 ± 0.4 | 33.6 ± 0.2 | 19.5 ± 0.6 | 46.4 ± 1.7
